Measurements published in patent publication US20090180969A1, “PHARMACEUTICAL FORMULATION COMPRISING AN ANTICHOLINERGIC DRUG” (Chiesi Farmaceutici S.p.A., priority 2008, published 2009).

Key:
[1] = system: acetylcholine (Ach)-induced increase in Penh (airway reactivity); experiment: Bronchodilation activity: Ach-induced increase in Penh, barometric plethysmography; format: in vivo, guinea pig; settings: for bronchoprotective effect: 24 hours
Procedure: Airway reactivity is measured using barometric plethysmography (Buxco, USA). Male guinea pigs (500-600 g) are individually placed in plexiglass chambers. After an acclimatisation period, animals are exposed to nebulised saline for 1 minute to obtain airway baseline reading. This is followed by a 1 minute challenge with nebulised acetylcholine (Ach)-2.5 mg/mL. After 60 minutes, 5 minute nebulisation of vehicle or the compound 1′ in the range 2.5-250 μM are applied and Ach challenge is then repeated after 2, 5, 24, 48 and 72 hours (h). Recording of pressure fluctuations in the chambers are taken for 5 minutes after each nebulisation and analysed to calculate Enhanced Pause (Penh). Airway reactivity is expressed as percentage increase in Penh compared with Penh values from the nebulisation of vehicle. […] After inhalation of […] of compound 1′, effect persists unchanged up to 48 hours (83.0±16.1%), while at 72 hours a residual activity of 34.8±20.9% is present.

[2] = Estimation of lung levels after nebulisation; format: in vivo; settings: guinea pig, inhaled, nebulisation with submaximal bronchodilator activity, 2 hours after treatment, read-out: retained dose in the target organ (lung)

Question: With `O=C(C[N+]12CCC(CC1)[C@@H](OC(=O)N(Cc1cc(F)c(F)c(F)c1)c1cccc(F)c1)C2)c1cccs1.[Cl-]` [compound 1′, (3R)-3-[[[(3-fluorophenyl)[(3,4,5-trifluorophenyl)methyl]amino]carbonyl]oxy]-1-[2-oxo-2-(2-thienyl)ethyl]-1-azoniabicyclo[2.2.2]octane chloride] as the compound, how does the bronchoprotective effect ([1]; 25 μM inhalation) read?
Answer: Its bronchoprotective effect is 63.7±15.1%.

Question: And the bronchoprotective effect ([1]; 50 μM inhalation)?
Answer: Its bronchoprotective effect is 87.1±8.7%.

Question: And the inhibition ([1]; 50 μM inhalation, 48 h)?
Answer: The inhibition was 49.2±23.2%.

Question: What about the “maximal effect, inhibition of Ach-induced increase in Penh” value ([1]; 50 μM nebulised, 2 hours after end of nebulisation) of the same compound?
Answer: Its value is 99.6±0.4.

Question: What about the “effect (inhibition of Ach-induced increase in Penh)” value ([1]; 250 μM inhalation, 48 hours) of the same compound?
Answer: The value was 83.0±16.1%.

Question: And the residual activity ([1]; 250 μM inhalation, 72 hours)?
Answer: Its residual activity is 34.8±20.9%.

Question: What about the duration of effect ([1]; inhalation of lower concentrations (below 25 μM)) of the same compound?
Answer: Its duration of effect is ≤ 5 h.

Question: What about the concentration at 2 h [2] of the same compound?
Answer: The concentration at 2 h was ~50 ng/g.
